Measured values from US5145839A, “Pharmaceutical composition and method of use” (priority 1988, dated 1992).

Key:
[1] = tested on: DNAs from different human cancer tissues, i.e. breast, colon and liver cancers; test: in vitro synthesis (replication) of DNA from human cancer tissues; format: biochemical; conditions: FIG. 3
Text: (§1) […]
(§2) DNAs used were isolated from human cancer and normal tissues furnished by different hospitals as indicated in IRCS Medical Science 14: 809-810, 1986. The normal brain tissue originated from Macaca mulatta.

[2] = tested on: DNAs from normal tissues (human bone marrow and spleen); test: in vitro synthesis (replication) of DNA from normal human tissues; format: biochemical; conditions: FIG. 3
Text: as §1, §2

[3] = tested on: DNA from normal monkey brain; test: in vitro synthesis (replication) of DNA from normal monkey brain; format: biochemical; conditions: Macaca mulatta brain; FIG. 3
Text: as §1, §2

[4] = tested on: DNA from cancerous tissue; test: in vitro synthesis of tritium-labeled cancer DNA, agent added at different points in time; format: biochemical; conditions: FIGS. 4a, 4b
Text: The same test method was used on DNA from cancerous tissue, determining the amount of tritium-labeled DNA synthesized over a period of time and the effect of introducing naringin at different points in time.

cancer cell DNA = test: UV absorbance at 260 nm (hypochromicity, DNA chain contraction), cancer cell DNA; conditions: 20 μg DNA in 1 ml Tris-HCl pH 7.3, room temperature, FIGS. 5a, 5b
Text: (§3) Naringin prepared in accordance with Example 1, and a commercial sample of naringenin prepared by Roth Co. of France, were used for comparison. […] The results are expressed as decrease of UV absorbance (hypochromicity) in the presence of various concentrations of the agent. The hypochromicity corresponds to DNA chain contraction, while hyperchromicity would correspond to DNA chain opening (i.e. the breaking of hydrogen bonds which normally hold the two DNA chains together). The spleen and bone marrow DNAs used in this test were from normal human spleen and bone marrow tissue cells. UV absorbance at wavelength of 260 nm for different DNAs from normal and cancer cells is performed at room temperature. 20 μg (micrograms) of DNA (deoxyribonucleic acid) are dissolved in 1 ml of Tris-HC1 buffer (10^-2 molar, pH adjusted to 7.3, solution made using sterile distilled water). The absorbance is measured before and after addition of either naringin or naringenin. The blank cuvette contains an equivalent amount of naringin or naringenin, but not DNA. The contact between DNA and compound is of about one minute (very slight agitation). The absorbance at 260 nm is then measured. The results are expressed as diminution (%) of UV absorbance.

[5] = tested on: normal cell DNA (spleen and bone marrow); test: UV absorbance at 260 nm (hypochromicity, DNA chain contraction), normal cell DNA; conditions: normal human spleen and bone marrow DNA, 20 μg in 1 ml Tris-HCl pH 7.3, 260 nm; FIGS. 5a, 5b
Text: as §3

human cancer cells = test: effect on in vitro cultured human cancer cells; format: cell-based; conditions: various concentrations; ovary cancer and leukemic cells resistant to classical chemotherapy; FIG. 2
Procedure: (§4) Naringin prepared in Example 1 has been used for determining its effect on in vitro cultured human cancer and normal cells, according to the method of Shoermaker R.H. et al., Cancer Research 45: 2145-2153, 1985). Culture medium contained 100 μg of penicillin and streptomycin in order to prevent bacterial contamination.

[6] = tested on: normal human bone marrow cells; test: effect on in vitro cultured normal human bone marrow cells; format: cell-based; conditions: various concentrations; FIG. 2
Procedure: as §4

[7] = tested on: tobacco mosaic virus (TMV); test: tobacco mosaic virus multiplication on tobacco leaf (plaque forming units); conditions: 20-50 micrograms per milliliter, virus incubated at 30° C. for 30 min.; xanthy tobacco leaf; checked two to three days later; FIG. 7
Procedure: The effect of naringin prepared according to Example 1, of commercial naringin and of commercial naringenin has been tested on tobacco mosaic virus (TMV). In this experiment, viral suspension containing 2 μg of virus/ml of distilled water, was incubated at 30° C. for 30 min. with each of the above compounds (20-50 micrograms per milliliter) and then 20 μl placed on one-half of the leaf ([…] tobacco) while the same concentration of untreated virus was placed on the other half of the same leaf. The appearance of viral disease was checked two to three days later. […] Naringenin or commercial naringin gave similar results.

[8] = tested on: Terminal deoxynucleotidyl Transferase (TdT); test: in vitro activity of TdT in cat leucosis vaccine (Leucocell); format: biochemical; conditions: 10 minutes at 36° C., pH 7.70, FIG. 6
Text: Both naringin and naringenin inhibit in vitro the activity of Terminal deoxynucleotidyl Transferase (TdT), an enzyme involved in the integration of viral genome into host cell. This enzyme is present in cat leucosis vaccine prepared by genetic engineering (Engerix® Leucocell vaccine), vaccine highly purified. I have previously shown that this enzyme catalyzes the polymerisation of d-TMP and d-CMP originating from d-TTP and d-CTP used respectively as substrates.
(§5) For testing the activity of TdT, the incubation medium (0.10 ml final volume) contains: 25 μmoles fresh solution of Tris-HC1 buffer pH 7.70; 2 μmoles MgCl2; (^3 d-NTP (deoxynucleoside-5'-triphosphate, 100,000 CPM). Increasing amounts of Leucocell vaccine (as indicated in FIG. 6) are used. Incubation for 10 minutes at 36° C., then addition of an equal volume of trichloroacetic acid (TCA 5%). Acid-precipitable material is filtered on millipore (Whatman GF/C), washed with 5% TCA then with 95° alcohol. After millipore drying, radioactivity of acid-insoluble material is measured in scintillation spectrometer Packard. The results are expressed as CPM (counts/minute)/sample.

[9] = tested on: Terminal deoxynucleotidyl Transferase (TdT); test: in vitro activity of TdT which contaminates Engerix-vaccine antigen B; format: biochemical; conditions: TdT which contaminates Engerix-vaccine antigen B (DNA virus antigen), same conditions
Procedure: as §5
In contrast, the activity of TdT which contaminates Engerix®-vaccine antigen B (Med. Sci. Res. 1987, vol.15 pp. 529-530), an antigen prepared from DNA virus is not inhibited, under the same conditions, by naringin or naringenin. Thus both naringin and naringenin selectively interfere with the proliferation of RNA virus but not DNA virus. However, as RNA from RNA-virus is transcribed into DNA by reverse transcriptase before being integrated into cell genome (potential role of TdT), naringin and naringenin are equally useful agents in treatment of all DNA infections equally.

BALB C mice = test: toxicity by intravenous route in BALB C mice; format: in vivo, mouse; conditions: for toxic effect: i.v. route, 10% DMSO, BALB C mice; for tolerability: i.v. injection or perfusion, doses from 250-1000 mg/kg (concluded)
Text: This example illustrates the absence of toxicity of naringin or naringenin injected by intravenous route to BALB C mice.

Ehrlich ascitic cells = test: mice bearing Ehrlich ascitic cells; format: in vivo, Swiss mice; conditions: than lymphoma YC8 cells
Procedure: (§6) O BALB C mice bearing lymphoma YC8 (ascitic form) and Swiss mice bearing Ehrlich ascitic cells (20-22 grams, Charles River breeding) were distributed at random in sets of 10.
Set II: Mice bearing tumor cells received JO-1 (= naringin, Example 1): 0.2 ml/mouse, twice/day, i.p. route (for JO-1 concentrations, see Tables 1, 3, and 4, and FIG. 10.)
(§7) Ascitic tumor cells were taken in sterile medium from mice bearing these cells for 15-20 days. 0.1 ml of ascitic suspension was mixed with 10 ml of buffered solution (pH 7.2) : (NaCl 7.2 g/l; Na2 HPO4 4.3 g/l and KH2 PO4 0.4 g/l).
(§8) The number of cells was determined (by Malassez cell) and cellular suspension diluted in order to get cell number close to 40.000-50.000/ml. 0.1 ml of this suspension was immediately injected by i.p. route to mice in sets I, II and III and by i.m. route to mice in set IV.
(§9) Treatment: 48 hours after injection of tumor cells: the mice of set II received (i.p.) JO-1 heated at 37° and filtered on millipore, treatment for five consecutive days; the mice of set III were treated (i.p.) by a mixture of JO-1 and one of the antibiotics for 5 consecutive days; the mice of set I (control) received (i.p.) only isotonic solution for 5 consecutive days; the mice of set IV received (i.m.) JO-1 for 15 consecutive days.
Only the survivors in excellent physical condition were taken into consideration .

tumor cells = test: mice bearing tumor cells treated with naringin and a chemotherapeutic agent; format: in vivo, mouse; conditions: with 5-fluorouracil, ARA-C, Endoxan, hydroxy-urea; i.p.; FIGS. 9a-9b, 10a-10d
Procedure: as §6
Set III: Mice bearing tumor cells received naringin (JO-1): 0.2 ml/mouse twice/day (for concentrations, see FIGS. 9 and 10), i.p. route and, at the same time these mice received a chemotherapeutic agent (for concentrations, see FIGS. 9 and 10) i.p. route.
as §7, §8
as §9, with “days. […]” for “days.”

[10] = biological activity compared with commercial compounds; conditions: compared with that exhibited by commercial compounds

## C[C@@H]1O[C@@H](O[C@H]2[C@H](Oc3cc(O)c4c(c3)O[C@H](c3ccc(O)cc3)CC4=O)O[C@H](CO)[C@@H](O)[C@@H]2O)[C@H](O)[C@H](O)[C@H]1O [naringin]
[1]
  inhibition of in vitro synthesis of DNAs from human cancer tissues: strongly inhibits
[2]
  effect on in vitro synthesis of DNAs from normal human tissues: practically unaffected
[3]
  effect on in vitro synthesis of DNA from normal monkey brain: practically unaffected
[4]; added after the reaction starts
  effect on DNA chain elongation: stops DNA chain elongation
[4]; given at zero time of incubation
  effect on DNA initiation: acts on DNA initiation sites
Cancer cell DNA
  contraction of cancer cell DNA chains (hypochromicity): contract cancer cell DNA chains
[5]
  contraction of normal cell DNA chains (hypochromicity): either no effect or a very slight effect
Human cancer cells
  inhibition of in vitro cultured human cancer cells: strongly inhibits
[6]
  effect on in vitro cultured normal human bone marrow cells: little effect
[7]
  inhibition of TMV multiplication: inhibits TMV multiplication
[8]
  inhibition of in vitro activity of TdT: inhibit in vitro activity of TdT
[9]
  inhibition of in vitro activity of TdT: not inhibited
BALB C mice; 125 mg/kg
  toxic effect: no toxic effect
BALB C mice; 250 mg/kg
  toxic effect: no toxic effect
BALB C mice; 500 mg/kg
  toxic effect: no toxic effect
BALB C mice
  tolerability: well tolerated
Ehrlich ascitic cells
  sensitivity of Ehrlich ascitic cells to naringin compared with lymphoma YC8 cells: less sensitive
Tumor cells
  synergistic action with classical antibiotics: synergistic action
[10]
  biological activity: better biological activity

## O=C1C[C@@H](c2ccc(O)cc2)Oc2cc(O)cc(O)c21 [naringenin]
Cancer cell DNA
  contraction of cancer cell DNA chains (hypochromicity): contract cancer cell DNA chains
[5]
  contraction of normal cell DNA chains (hypochromicity): either no effect or a very slight effect
[7]
  inhibition of TMV multiplication: inhibits TMV multiplication
[8]
  inhibition of in vitro activity of TdT: inhibit in vitro activity of TdT
[9]
  inhibition of in vitro activity of TdT: not inhibited
BALB C mice; 125 mg/kg
  toxic effect: no toxic effect
BALB C mice; 250 mg/kg
  toxic effect: no toxic effect
BALB C mice; 500 mg/kg
  toxic effect: no toxic effect
BALB C mice
  tolerability: well tolerated
